Patent publication US5254569A, “(Amidomethyl)nitrogen heterocyclic analgesics” (The Du Pont Merck Pharmaceutical Company, priority 1991, dated 1993)
Where a name gives a salt, the structure may show the parent alone. Read-outs that look alike come from different tables or passages of the source.

Columns and labels:
[1] = mouse, in vivo; cited from earlier work
[2] = phenylquinone writhing test (PQW), analgesic activity in mice; type: in vivo, male white mice (CFl); settings: for ED50: Mus musculus
[3] = molecular target: mu opioid receptor; experiment: opioid receptor binding, mu ([3H]naloxone); design: species or system guinea pig (method, b1124); rat (Table 4 title)
[4] = molecular target: T1, kappa opioid receptor (Cavia porcellus, UniProt P41144); experiment: opioid receptor binding, kappa ((-)-[3H]ethylketocycloazocine); design: species or system guinea pig (method, b1124); rat (Table 4 title)
T1 construct: Whole brains were homogenized (20 sec) in 10 vol (wt/vol) of ice-cold 0.34 M sucrose; tissue Charles River (animals); host or cells: guinea pig whole-brain membranes

[5] = 0.5 nM [3H]naloxone, brain membranes, apparent Ki

T1 sequence (P41144 whole entry): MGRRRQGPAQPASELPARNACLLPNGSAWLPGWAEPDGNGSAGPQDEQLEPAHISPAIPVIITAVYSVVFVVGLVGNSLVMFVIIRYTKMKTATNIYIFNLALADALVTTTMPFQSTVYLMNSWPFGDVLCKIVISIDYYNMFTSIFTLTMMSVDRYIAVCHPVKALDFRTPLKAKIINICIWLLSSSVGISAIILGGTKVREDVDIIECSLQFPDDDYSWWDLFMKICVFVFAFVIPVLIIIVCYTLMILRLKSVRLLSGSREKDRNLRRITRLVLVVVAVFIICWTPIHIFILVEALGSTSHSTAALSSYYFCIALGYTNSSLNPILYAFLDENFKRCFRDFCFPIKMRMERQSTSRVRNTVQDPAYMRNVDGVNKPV

SMILES	ED50 ([2]; po)	ED50 ([2]; sc)	Ki [3]	Ki [3, 5]	other results
CN1CC[C@]23c4c5ccc(O)c4O[C@H]2[C@@H](O)C=C[C@H]3[C@H]1C5 [Morphine]	–	–	–	–	sedation in mice [1]: do not produce sedation
CN1CCCC[C@@H]1[C@H](c1ccccc1)N(C)C(=O)COc1ccc(Cl)c(Cl)c1 [Example 112]	> 81 mg/kg	12 mg/kg	4620 nM	–	–
COc1cccc(C(C2CCCCN2C)N(C)C(=O)Cc2ccc(Cl)c(Cl)c2)c1 (stereo not shown) [Example 5, benzeneacetamide,3,4-dichloro-N-[1-(3-methoxyphenyl)-1-(1-methyl-2-piperidinyl)methyl]-N-methyl-, hydrochloride]	38 mg/kg	1.3 mg/kg	3470 nM	–	–
CCN(C(=O)Cc1ccc(Cl)c(Cl)c1)C(c1ccccc1)C1CCCCN1C (stereo not shown) [Example 11]	38 mg/kg	–	660 nM	–	MOUSE PQW ED50 ([2]; s.c.): 30.0 mg/kg
COc1cccc([C@@H]([C@@H]2CCCCN2C)N(C)C(=O)COc2ccc(Cl)c(Cl)c2)c1 [Example 140]	5.2 mg/kg	0.29 mg/kg	104 nM	–	–
CCN(C(=O)Cc1ccc(Cl)c(Cl)c1)C(c1ccccc1)C1CCCCN1C (stereo not shown) [Example 12]	–	–	3320 nM	–	MOUSE PQW ED50 ([2]; p.o.): 24. mg/kg; MOUSE PQW ED50 ([2]; s.c.): 1.7 mg/kg
CN1CCCC[C@H]1[C@@H](c1ccccc1)N(C)C(=O)COc1ccc(Cl)c(Cl)c1 [Example 113]	> 81 mg/kg	67 mg/kg	> 10000 nM	–	–
CN1CCCC[C@H]1[C@H](c1ccccc1)N(C)C(=O)Cc1cccc2occc12 [Example 114]	8.1 mg/kg	0.57 mg/kg	250 nM	–	–
CN1CCCC[C@H]1[C@H](c1ccc(F)cc1)N(C)C(=O)Cc1ccc(Cl)c(Cl)c1 [Example 118]	19 mg/kg	1.7 mg/kg	1060 nM	–	–
CN1CCCCC1C(Cc1ccccc1)N(C)C(=O)Cc1ccc(Cl)c(Cl)c1 (stereo not shown) [Example 47]	> 81 mg/kg	> 81 mg/kg	–	2560 nM	Ki [4]: 3990 nM
C=CCN1CCCC[C@H]1[C@H](c1ccccc1)N(C)C(=O)Cc1ccc(Cl)c(Cl)c1 [Example 180]	24 mg/kg	> 81 mg/kg	530 nM	–	–
CN1CCCC[C@@H]1[C@@H](c1ccccc1)N(C)C(=O)Cc1ccc(Cl)c(Cl)c1 [Example 107]	30 mg/kg	13 mg/kg	253 nM	–	–
CN1CCCC[C@@H]1[C@@H](c1ccccc1)N(C)C(=O)COc1ccc(Cl)c(Cl)c1 [Example 111]	19 mg/kg	1.3 mg/kg	195 nM	–	–
CN(C(=O)Cc1ccc(Cl)c(Cl)c1)[C@@H](c1ccccc1)[C@@H]1CCCCN1CC1CC1 [Example 179]	10 mg/kg	> 81 mg/kg	–	604 nM	Ki [4]: 397 nM
CN1CCCCC1C(c1cccc(O)c1)N(C)C(=O)Cc1ccc(Cl)c(Cl)c1 (stereo not shown) [Example 6, benzeneacetamide,3,4-dichloro-N-[1-(3-hydroxyphenyl)-1-(1-methyl-2-piperidinyl)methyl]-N-methyl-, hydrobromide]	> 81 mg/kg	18 mg/kg	438 nM	–	–
CN1CCCC[C@H]1[C@H](c1cccc(O)c1)N(C)C(=O)COc1ccc(Cl)c(Cl)c1 [Example 144]	16 mg/kg	4.2 mg/kg	–	27 nM	–

SMILES	ED50 ([2]; po)	ED50 ([2]; sc)	Ki [3]	Ki [3, 5]	other results
CN1CCCCC1C(c1ccccc1)N(C)C(=O)Cc1c(F)c(F)c(F)c(F)c1F (stereo not shown) [Example 10]	47 mg/kg	16 mg/kg	3200 nM	–	–
CC(C1CCCCN1C)N(C)C(=O)Cc1ccc(Cl)c(Cl)c1 (stereo not shown) [Example 4, benzeneacetamide,3,4-dichloro-N-methyl-N-[1-(1-methyl-2-piperidinyl)ethyl]-, hydrochloride]	> 81 mg/kg	67 mg/kg	–	28500 nM	Ki [4]: 1280 nM
CN1CCCC[C@H]1[C@H](c1ccccc1)N(C)C(=O)COc1ccc(Cl)c(Cl)c1 [Example 110]	0.89 mg/kg	0.078 mg/kg	–	8 nM	–
CN1CCCC[C@H]1[C@@H](c1ccccc1)N(C)C(=O)Cc1ccc(Cl)c(Cl)c1 [Example 109]	> 81 mg/kg	> 81 mg/kg	3860 nM	–	–
CN1CCCCC1C(c1ccccc1)N(C)C(=O)COc1ccc(Cl)c(Cl)c1 (stereo not shown) [Example 14]	1.2 mg/kg	0.11 mg/kg	–	58 nM	–
CN1CCCCC1C(c1ccc(O)cc1)N(C)C(=O)Cc1ccc(Cl)c(Cl)c1 (stereo not shown) [Example 8]	> 81 mg/kg	> 81 mg/kg	–	11400 nM	Ki [4]: 2590 nM
CN1CCCC[C@H]1[C@H](c1cccc(O)c1)N(C)C(=O)Cc1ccc(Cl)c(Cl)c1 [Example 122]	47 mg/kg	36 mg/kg	209 nM	–	–
COc1cccc([C@@H]([C@@H]2CCCCN2C)N(C)C(=O)Cc2ccc(Cl)c(Cl)c2)c1 [Example 120]	19 mg/kg	1.6 mg/kg	633 nM	–	–
CN1CCCCC1C(c1ccccc1)N(C)C(=O)Cc1ccc(Cl)c(Cl)c1 (stereo not shown) [Example 2, benzeneacetamide, 3,4-dichloro-N-methyl-N-[1-(1-methyl-2-piperidinyl)phenyl-methyl], hydrochloride]	10 mg/kg	–	–	–	MOUSE PQW ED50 ([2]; s.c., hydrochloride): 1.7 mg/kg; Ki ([3]; hydrochloride): 270 nM
CN1CCCC[C@H]1[C@H](c1ccc(F)cc1)N(C)C(=O)COc1ccc(Cl)c(Cl)c1 [Example 136]	1.7 mg/kg	0.24 mg/kg	–	54 nM	–
CN1CCCCC1C(c1ccccc1)N(C)C(=O)Cc1ccc(Cl)c(Cl)c1 (stereo not shown) [Example 9]	–	–	322 nM	–	MOUSE PQW ED50 ([2]; p.o.): 16. mg/kg; MOUSE PQW ED50 ([2]; s.c.): 0.72 mg/kg
CN1CCCC[C@H]1[C@H](c1ccccc1)N(C)C(=O)Cc1ccc(Cl)c(Cl)c1 [Example 106, (+)-[2S-(R*,R*)]-(3,4-dichlorophenyl)-N-methyl-N-[1-(1-methyl-2-piperidinyl)phenylmethyl]acetamide hydrochloride]	8.1 mg/kg	0.37 mg/kg	414 nM	–	–
CN1CCCCC1C(c1ccccc1)N(C)C(=O)Cc1ccc(Cl)cc1Cl (stereo not shown) [Example 13]	24 mg/kg	8.1 mg/kg	625 nM	–	–
COc1ccc(C(C2CCCCN2C)N(C)C(=O)Cc2ccc(Cl)c(Cl)c2)cc1 (stereo not shown) [Example 7, Benzeneacetamide, 3,4-dichloro-N-((1-(4-methoxyphenyl)-1-(1-methyl-2-piperidinylmethyl))-N-methyl-, hydrochloride]	> 81 mg/kg	> 81 mg/kg	–	5670 nM	Ki [4]: 4590 nM
CN(C(=O)Cc1ccc(Cl)c(Cl)c1)C(c1ccccc1)C1CCCCN1CC1CC1 (stereo not shown) [Example 3]	47 mg/kg	> 81 mg/kg	–	957 nM	Ki [4]: 530 nM
